Earlier results, collected in patent publication US20220370332A1, “PRODUCT FOR DYEING KERATINOUS MATERIAL, CONTAINING AMINOSILICONE, A CHROMOPHORIC COMPOUND, PRESERVATIVE AND ETHOXYLATED FATTY ALCOHOL” (Henkel AG & Co. KGaA, priority 2019, published 2022).
Blank lines part the entries; values can stand above or below the molecule they belong to.

Conditions: 25° C.

Compound: O=C([O-])c1c(Cl)c(Cl)c(Cl)c(Cl)c1-c1c2c(Br)cc(=O)c(Br)c-2oc2c(Br)c(O)cc(Br)c12.O=C([O-])c1c(Cl)c(Cl)c(Cl)c(Cl)c1-c1c2c(Br)cc(=O)c(Br)c-2oc2c(Br)c(O)cc(Br)c12.[Na+].[Na+] [Acid Red 92, disodium salt of 3,4,5,6-tetrachloro-2-(1,4,5,8-tetrabromo-6-hydroxy-3-oxoxanthen-9-yl)benzoic acid]
- solubility in water: greater than 10 g/L

Compound: O=S(=O)([O-])c1ccc(N=Nc2c(O)ccc3ccccc23)cc1.[Na+] [Acid Orange 7, sodium salt of 4-[(2-hydroxy-1-naphthyl)azo]benzene sulphonate]
- solubility in water: more than 7 g/L

Further lines, results first:

- solubility in water: highly soluble in water
Compound: O=C([O-])C1=NN(c2ccc(S(=O)(=O)[O-])cc2)C(=O)C1N=Nc1ccc(S(=O)(=O)[O-])cc1.[Na+].[Na+].[Na+] (centres unmarked) [Acid Yellow 23, trisodium salt of 4,5-dihydro-5-oxo-1-(4-sulfophenyl)-4-((4-sulfophenyl)azo)-1H-pyrazole-3-carboxylic acid]

- solubility in water: more than 20 % by weight
Compound: CCN(Cc1cccc(S(=O)(=O)[O-])c1)c1ccc(C(=C2C=CC(=[N+](CC)Cc3cccc(S(=O)(=O)[O-])c3)C=C2)c2ccccc2S(=O)(=O)[O-])cc1.[Na+].[Na+] [Acid Blue 9]

- solubility in water: 2.5 g/L
Compound: Nc1cc(S(=O)(=O)[O-])cc2cc(S(=O)(=O)[O-])c(N=Nc3ccccc3)c(O)c12.[Na+].[Na+] [Acid Red 33, diantrium salt of 5-amino-4-hydroxy-3-(phenylazo)-naphthalene-2,7-disulphonate]
